In ChEMBL document CHEMBL5038628, “Discovery of spiro amide SHR902275: A potent, selective, and efficacious RAF inhibitor targeting RAS mutant cancers” (Eur J Med Chem, 2022):
Converted amounts (≈) assume the structure as drawn.

What was measured:
[1] = Solubility of the compound at pH 7.4; conditions: buffer
NCI-H358 = assay: Cytotoxicity against human NCI-H358 cells assessed as inhibition of growth measured after 72 hrs by CellTiter-Glo luciferase assay; type: functional
[2] = target: RAF proto-oncogene serine/threonine-protein kinase (Homo sapiens, UniProt P04049); assay: Inhibition of human recombinant cRAF measured after 60 mins by TR-FRET assay
RAF proto-oncogene serine/threonine-protein kinase, sequence (P04049 whole entry): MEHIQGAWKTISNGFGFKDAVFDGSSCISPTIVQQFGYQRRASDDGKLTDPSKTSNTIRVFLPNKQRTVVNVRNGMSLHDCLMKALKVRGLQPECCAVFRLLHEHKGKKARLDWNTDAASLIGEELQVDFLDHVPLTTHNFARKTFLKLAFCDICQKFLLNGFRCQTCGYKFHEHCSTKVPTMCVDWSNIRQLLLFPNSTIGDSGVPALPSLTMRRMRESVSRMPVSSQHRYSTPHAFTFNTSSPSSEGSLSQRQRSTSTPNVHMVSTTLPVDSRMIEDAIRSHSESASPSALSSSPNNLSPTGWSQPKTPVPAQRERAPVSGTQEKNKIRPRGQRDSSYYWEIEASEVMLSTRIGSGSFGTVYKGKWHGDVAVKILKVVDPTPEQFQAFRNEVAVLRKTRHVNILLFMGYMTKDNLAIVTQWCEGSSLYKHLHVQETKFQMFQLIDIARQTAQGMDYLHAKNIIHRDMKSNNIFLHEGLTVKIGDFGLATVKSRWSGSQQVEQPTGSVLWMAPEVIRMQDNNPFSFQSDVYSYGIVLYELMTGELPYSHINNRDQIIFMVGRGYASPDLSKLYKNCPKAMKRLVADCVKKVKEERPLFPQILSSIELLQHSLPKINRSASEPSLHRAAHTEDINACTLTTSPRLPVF

[3] = AUC (0 to t) in Sprague-Dawley rat plasma at 2 mg/kg, IG by LC-MS/MS analysis; type: ADME, organism-based; design: dose 2 mg/kg; conditions: Sprague-Dawley, plasma, po
[4] = Oral bioavailability in Sprague-Dawley rat by LC-MS/MS analysis; type: ADME, organism-based; conditions: Sprague-Dawley, in vivo
[5] = Clearance in Sprague-Dawley rat plasma at 1 mg/kg, iv by LC-MS/MS analysis; type: ADME, organism-based
[6] = Cmax in Sprague-Dawley rat plasma at 2 mg/kg, IG by LC-MS/MS analysis; type: ADME, organism-based; design: route […], dose 2 mg/kg; conditions: po
[7] = Metabolic stability in human liver microsomes assessed as half life; type: ADME, Microsome
[8] = Half life in Sprague-Dawley rat plasma at 1 mg/kg, iv by LC-MS/MS analysis; type: ADME, organism-based; conditions: for half-life: Sprague-Dawley, plasma; for t1/2: in vivo, 1 mg/kg
[9] = MRT (0 to infinity) in Sprague-Dawley rat plasma at 1 mg/kg, iv by LC-MS/MS analysis; type: ADME, organism-based; conditions: in vivo
[10] = AUC (0 to t) in Sprague-Dawley rat plasma at 1 mg/kg, iv by LC-MS/MS analysis; type: ADME, organism-based; design: dose 1 mg/kg

Row | SMILES | solubility [1] | GI50 (NCI-H358) | IC50 [2] | further results
1 | Cc1ccc(NC(=O)c2cc(C(F)(F)F)ccn2)cc1-c1ccc2c(c1)OC1(CCOCC1)CC(=O)N2 | 1.4 µM (≈ 0.716 µg/mL) | 2.9 µM | 0.0113 µM | 
2 | Cc1ccc(NC(=O)c2ccnc(C(F)(F)F)c2)cc1-c1ccc2c(c1)OC1(CCOCC1)CCO2 |  | 8.5 µM | 0.032 µM | 
3 | Cc1ccc(NC(=O)c2cc(C(F)(F)F)nn2C)cc1-c1ccc2c(c1)OC1(CCOCC1)CC(=O)N2 |  | 13 µM | 0.028 µM | 
4 | Cc1ccc(NC(=O)c2ccnc(C(F)(F)F)c2)cc1-c1ccc2c(c1)OC1(CCOCC1)CC(=O)N2CCO |  | 4.7 µM | 0.00083 µM | 
5 | O=C1CC2(CCOCC2)Oc2cc(-c3cc(NC(=O)c4ccnc(C(F)(F)F)c4)ccc3CO)ccc2N1 |  | 21 µM | 0.0035 µM | 
6 | Cc1ccc(NC(=O)c2ccnc(C3CC3)c2)cc1-c1ccc2c(c1)OC1(CCOCC1)CC(=O)N2 | 0.61 µM (≈ 0.295 µg/mL) | 2.5 µM | 0.0071 µM | 
7 | Cc1cc(F)c(NC(=O)N(C)c2ccnc(C(F)(F)F)c2)cc1-c1ccc2c(c1)OC1(CCOCC1)CC(=O)N2 |  | 9.4 µM | 0.0047 µM | 
8 | Cc1ncc(NC(=O)c2ccnc(C(F)(F)F)c2)cc1-c1ccc2c(c1)OC1(CCOCC1)CC(=O)N2 |  | 6.3 µM | 0.005 µM | 
9 | Cc1ccc(NC(=O)c2ccnc(C(F)(F)F)c2)cc1-c1ccc2c(c1)OC1(CCOCC1)CN(CCO)C2=O | 311 µM (≈ 173 µg/mL) | 3.2 µM | 0.0013 µM | AUC(0-t) [3]: 0.029 µg·h/mL; bioavailability [4]: 3.47%; clearance [5]: 2.42 L/h/kg; Cmax [6]: 0.0059 µg/mL
10 | Cc1ccc(NS(=O)(=O)c2ccnc(C(F)(F)F)c2)cc1-c1ccc2c(c1)OC1(CCOCC1)CC(=O)N2 |  | > 30 µM | 0.032 µM | 
11 | Cc1cnc(NC(=O)c2ccnc(C(F)(F)F)c2)cc1-c1ccc2c(c1)OC1(CCOCC1)CC(=O)N2 |  | 3.8 µM | 0.0018 µM | 
12 | Cc1ccc(NC(=O)c2ccnc(C(F)(F)F)n2)cc1-c1ccc2c(c1)OC1(CCOCC1)CC(=O)N2 |  | 12 µM | 0.334 µM | 
13 | Cc1ccc(NC(=O)c2cncc(C(F)(F)F)c2)cc1-c1ccc2c(c1)OC1(CCOCC1)CC(=O)N2 | 0.06 µM (≈ 0.0307 µg/mL) | 1.6 µM | 0.0054 µM | 
14 | Cc1ccc(NC(=O)c2ccnc(C(F)(F)F)c2)cc1-c1ccc2c(c1)OC1(CCOCC1)CN(CC(C)(C)O)C2=O |  | 6.2 µM | 0.034 µM | 
15 | Cc1ccc(NC(=O)c2cccc(C(F)(F)F)n2)cc1-c1ccc2c(c1)OC1(CCOCC1)CC(=O)N2 |  | 6.8 µM | 0.0197 µM | 
16 | COc1nnc(C(=O)Nc2ccc(C)c(-c3ccc4c(c3)OC3(CCOCC3)CC(=O)N4)c2)cc1C(F)(F)F | 3.6 µM (≈ 1.95 µg/mL) | 2.6 µM | 0.022 µM | half-life [7]: 57 min
17 | Cc1ccc(NC(=O)c2ccnc(C(F)(F)F)c2)cc1-c1ccc2c(c1)OC1(CCN2)CCOCC1 |  | 13 µM | 0.0054 µM | 
18 | Cc1ccc(NC(=O)c2ccnc(OC(F)F)c2)cc1-c1ccc2c(c1)OC1(CCOCC1)CC(=O)N2 | 0.16 µM (≈ 0.0815 µg/mL) | 0.9 µM | 0.0041 µM | AUC(0-t) [3]: 0.455 µg·h/mL; bioavailability [4]: 22%; half-life [8]: 90 min; clearance [5]: 1 L/h/kg; Cmax [6]: 0.107 µg/mL
19 | Cc1cc(F)c(NC(=O)Nc2ccnc(C(F)(F)F)c2)cc1-c1ccc2c(c1)OC1(CCOCC1)CC(=O)N2 |  | 0.2 µM | 0.0067 µM | MRT [9]: 11.4 min; t1/2 [8]: 22.2 min; AUC(0-t) [10]: 0.154 µg·h/mL; clearance [5]: 7.2 L/h/kg
20 | Cc1ccc(NC(=O)c2nccc(C(F)(F)F)n2)cc1-c1ccc2c(c1)OC1(CCOCC1)CC(=O)N2 | 1.4 µM (≈ 0.717 µg/mL) | 2.3 µM | 0.002 µM | 
21 | Cc1ccc(NC(=O)c2ccc(C(F)(F)F)s2)cc1-c1ccc2c(c1)OC1(CCOCC1)CC(=O)N2 |  | 3.4 µM | 0.069 µM | 

Row | SMILES | solubility [1] | GI50 (NCI-H358) | IC50 [2] | further results
22 | Cc1ccc(NC(=O)c2cc(OCCO)nc(C(F)(F)F)c2)cc1-c1ccc2c(c1)OC1(CCOCC1)CC(=O)N2 |  | 4.3 µM | 0.026 µM | 
23 | COc1ccc(NC(=O)c2ccnc(C(F)(F)F)c2)cc1-c1ccc2c(c1)OC1(CCOCC1)CC(=O)N2 |  | 5.9 µM | 0.0036 µM | 
24 | Cc1ccc(NC(=O)c2ccnc(C(F)(F)F)c2)cc1-c1ccc2c(c1)OC1(CCOCC1)CN(C)C2=O | 8.5 µM (≈ 4.47 µg/mL) | 2.9 µM | 0.0013 µM | 
25 | Cc1ccc(NC(=O)c2cc(OCCO)nc(OC(F)F)c2)cc1-c1ccc2c(c1)OC1(CCOCC1)CC(=O)N2 | 0.41 µM (≈ 0.234 µg/mL) | 2 µM | 0.0092 µM | 
26 | Cc1ccc(NC(=O)C2CCNC(C(F)(F)F)C2)cc1-c1ccc2c(c1)OC1(CCOCC1)CC(=O)N2 (stereo not drawn) |  | > 30 µM | 0.0033 µM | 
27 | Cc1ccc(C(=O)Nc2ccnc(C(F)(F)F)c2)cc1-c1ccc2c(c1)OC1(CCOCC1)CC(=O)N2 |  | 8.6 µM | 0.021 µM | 
28 | Cc1ccc(NC(=O)c2cc(C(F)(F)F)cnn2)cc1-c1ccc2c(c1)OC1(CCOCC1)CC(=O)N2CCO |  | 2.6 µM | 0.0026 µM | half-life [7]: 11 min
29 | Cc1ccc(NC(=O)c2ccnc(C(F)(F)F)c2)cc1-c1ccc2c(c1)OC1(CCOCC1)CN(CCN(C)C)C2=O |  | 7.6 µM | 0.013 µM | 
30 | Cc1ccc(NC(=O)c2cc(OC3CC3)cnn2)cc1-c1ccc2c(c1)OC1(CCOCC1)CC(=O)N2 |  | 1.9 µM | 0.0034 µM | half-life [7]: 6.8 min
31 | Cc1ccc(NC(=O)c2cnnc(C(F)(F)F)c2)cc1-c1ccc2c(c1)OC1(CCOCC1)CC(=O)N2 | 0.44 µM (≈ 0.225 µg/mL) | 2 µM | 0.0032 µM | AUC(0-t) [3]: 0.176 µg·h/mL; bioavailability [4]: 9.2%; half-life [8]: 90 min; clearance [5]: 0.966 L/h/kg; Cmax [6]: 0.04 µg/mL
32 | Cc1ccc(NC(=O)c2cc(C(F)(F)F)ncn2)cc1-c1ccc2c(c1)OC1(CCOCC1)CC(=O)N2 | 0.35 µM (≈ 0.179 µg/mL) | 2.7 µM | 0.0055 µM | 
33 | Cc1ccc(NC(=O)c2cc(C(F)F)cnn2)cc1-c1ccc2c(c1)OC1(CCOCC1)CC(=O)N2 | 7 µM (≈ 3.46 µg/mL) | 3.9 µM | 0.0008 µM | 
34 | Cc1ccc(NC(=O)c2cc(C(F)(F)F)cnn2)cc1-c1ccc2c(c1)OC1(CCOCC1)CC(=O)N2C | 2.3 µM (≈ 1.21 µg/mL) | 1.3 µM | 0.0039 µM | half-life [7]: 4.6 min
35 | Cc1ccc(NC(=O)c2ccnc(C(F)(F)F)c2)cc1-c1ccc2c(c1)OC1(CCOCC1)CNC2=O | 10.4 µM (≈ 5.32 µg/mL) | 2.9 µM | 0.0036 µM | AUC(0-t) [3]: 0.0413 µg·h/mL; Cmax [6]: 0.0077 µg/mL
36 | Cc1ccc(-c2nnc(-c3ccnc(C(F)(F)F)c3)[nH]2)cc1-c1ccc2c(c1)OC1(CCOCC1)CC(=O)N2 |  | 2.5 µM | 0.048 µM | MRT [9]: 155 min; AUC(0-t) [3]: 0.0386 µg·h/mL; bioavailability [4]: 2.16%; t1/2 [8]: 227 min; AUC(0-t) [10]: 0.999 µg·h/mL; clearance [5]: 1.03 L/h/kg
37 | Cc1ccc(NC(=O)c2ccnc(C(F)(F)F)c2)cc1-c1ccc2c(c1)OC1(CCOCC1)CC(=O)N2C |  | 7.1 µM | 0.0045 µM | 
38 | Cc1ccc(NC(=O)N2CCCC(C(F)(F)F)C2)cc1-c1ccc2c(c1)OC1(CCOCC1)CC(=O)N2 (stereo not drawn) |  | 5.5 µM | 0.013 µM | 
39 | Cc1ccc(NC(=O)c2cncc(C(F)(F)F)n2)cc1-c1ccc2c(c1)OC1(CCOCC1)CC(=O)N2 |  | 5.2 µM | 0.0033 µM | 
40 | Cc1cc(F)c(NC(=O)Cc2ccnc(C(F)(F)F)c2)cc1-c1ccc2c(c1)OC1(CCOCC1)CC(=O)N2 |  | 9.4 µM | 0.0032 µM | 
41 | Cc1ccc(NC(=O)c2ccnc(C(F)(F)F)c2)cc1-c1ccc2c(c1)OC1(CCOCC1)CNC2 |  | 15 µM | 0.0043 µM | 
42 | Cc1ccc(NC(=O)c2ccnc(C(F)(F)F)c2)nc1-c1ccc2c(c1)OC1(CCOCC1)CC(=O)N2 |  | > 30 µM | 0.0022 µM | 
